Calls of active or inactive are those of the source.
How the values were obtained:
[1] = viability of uninfected HEp-2 cells – cell-based, HTS, cytotoxicity control for RSV inhibitor project, dose response (AID 2410); format: functional; conditions: human respiratory syncytial virus
CHO-K1 = experiment: (§1) Counterscreen for antagonists of the orexin 1 receptor (OX1R; HCRTR1): Homogeneous time resolved fluorescence (HTRF)-based cell-based dose response assay to identify antagonists of the parental CHO-K1 cell line. [Related pubchem assays (depositor defined):AID434989, AID435008, AID463079, AID485270, AID492963, AID492964, AID492965, AID493232, AID504699, AID504701]; format: functional; conditions: Cricetulus griseus
[2] = as §1, with “Fluorescence-based” for “Homogeneous time resolved fluorescence (HTRF)-based”, “cell-based high throughput” for “cell-based”, “CHO” for “CHO-K1”; format: functional
[3] = target: T1, Orexin/Hypocretin receptor type 1 (Homo sapiens, UniProt O43613); experiment: Homogeneous Time Resolved Fluorescence (HTRF)-based cell-based high throughput dose response assay for antagonists of the orexin 1 receptor (OX1R; HCRTR1). [Related pubchem assays (depositor defined):AID434989, AID435008, AID463079, AID485270, AID492963, AID492964, AID492965, AID493232, AID504717, AID504718]; format: functional
T1 sequence (O43613 whole entry): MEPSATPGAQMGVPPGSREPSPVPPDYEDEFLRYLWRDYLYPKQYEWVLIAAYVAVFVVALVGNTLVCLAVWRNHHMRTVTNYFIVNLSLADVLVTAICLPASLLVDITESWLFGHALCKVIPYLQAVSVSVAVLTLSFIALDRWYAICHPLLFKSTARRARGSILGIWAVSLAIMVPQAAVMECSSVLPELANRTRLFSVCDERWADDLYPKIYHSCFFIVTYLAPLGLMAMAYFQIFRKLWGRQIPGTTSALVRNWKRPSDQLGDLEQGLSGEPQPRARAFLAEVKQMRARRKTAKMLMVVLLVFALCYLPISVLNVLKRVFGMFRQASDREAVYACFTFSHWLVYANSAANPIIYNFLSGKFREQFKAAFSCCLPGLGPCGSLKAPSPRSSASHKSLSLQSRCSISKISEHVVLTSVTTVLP

[4] = target: T1, Orexin/Hypocretin receptor type 1; experiment: Fluorescence-based cell-based high throughput dose response assay for antagonists of the orexin 1 receptor (OX1R; HCRTR1). [Related pubchem assays (depositor defined):AID434989, AID435008, AID463079, AID485270, AID492963, AID492964, AID492965, AID493232, AID504717, AID504718]; format: functional
[5] = target: T2, Endoribonuclease toxin MazF (Escherichia coli K-12, UniProt P0AE70); experiment: activation of MazEF endoribonuclease cleavage – biochemical, fluorescence, single-stranded RNA substrate, uHTS hits, dose response (AID 588481); format: functional
T2 sequence (P0AE70 whole entry): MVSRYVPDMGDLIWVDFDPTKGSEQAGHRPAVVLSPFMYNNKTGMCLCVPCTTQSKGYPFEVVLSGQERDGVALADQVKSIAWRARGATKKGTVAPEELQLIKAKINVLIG

[6] = target: T2, Endoribonuclease toxin MazF; experiment: substrate-only fluorescence increase artefacts – biochemical, single-stranded RNase substrate, counter-screen for MazEF activator project, dose response (AID 588502); format: functional
Orexin receptor type 2 [7] = target: T3, Orexin receptor type 2 (Homo sapiens, UniProt O43614); experiment: Counterscreen assay for antagonists of the orexin 1 receptor (OX1R; HCRTR1): Fluorescence-based cell-based dose response assay for antagonists of the orexin 2 receptor (OX2R; HCRTR2), run by assay provider.; format: functional
T3 sequence (O43614 whole entry): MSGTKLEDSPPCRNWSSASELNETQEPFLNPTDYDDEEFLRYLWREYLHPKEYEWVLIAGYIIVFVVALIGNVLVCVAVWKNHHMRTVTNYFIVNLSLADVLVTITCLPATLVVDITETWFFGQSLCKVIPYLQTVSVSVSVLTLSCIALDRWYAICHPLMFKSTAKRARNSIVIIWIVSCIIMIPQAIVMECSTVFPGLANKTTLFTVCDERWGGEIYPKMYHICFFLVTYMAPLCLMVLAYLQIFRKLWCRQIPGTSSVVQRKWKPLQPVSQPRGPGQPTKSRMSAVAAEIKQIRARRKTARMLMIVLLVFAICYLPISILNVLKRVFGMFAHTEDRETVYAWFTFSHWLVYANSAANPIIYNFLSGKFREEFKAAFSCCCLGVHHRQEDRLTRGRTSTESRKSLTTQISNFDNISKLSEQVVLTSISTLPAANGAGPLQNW

Orexin receptor type 2 [8] = target: T3, Orexin receptor type 2; experiment: Counterscreen assay for antagonists of the orexin 1 receptor (OX1R; HCRTR1): Homogeneous Time Resolved Fluorescence (HTRF)-based cell-based dose response assay for antagonists of the orexin 2 receptor (OX2R; HCRTR2), run by assay provider.; format: functional
[9] = reduction of Shn3 3'UTR-driven luciferase in osteoblasts – cell-based, Clone20 osteoblasts, firefly luciferase, cherry-picked, dose response (AID 624132); format: functional;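 also: firefly luciferase luminescence from reporter carrying the Shn3 3'UTR in osteoblasts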
[10] = loss of viability in HepG2 cells – cell-based, CellTiter-Glo, cherry-picked, cytotoxicity control for Shn3 inhibitor project, dose response (AID 624134); format: functional
[11] = non-specific 3'UTR reporter inhibition in Clone20-Shn3RL – cell-based, Renilla luciferase, cherry-picked, counter-screen for Shn3 inhibitor project, dose response (AID 624133); format: functional
[12] = target: T4, Mitochondrial peptide methionine sulfoxide reductase (Bos taurus, UniProt P54149); format: functional;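 also: absorbance read-out, biochemical high-throughput dose-response screen for MsrA inhibitors, confirmatory; recombinant bovine MsrA coupled to E. coli TrxB with NADPH and selenocystamine; potency is for inhibitors of MsrA activity on DMSO substrate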
T4 sequence (P54149 whole entry): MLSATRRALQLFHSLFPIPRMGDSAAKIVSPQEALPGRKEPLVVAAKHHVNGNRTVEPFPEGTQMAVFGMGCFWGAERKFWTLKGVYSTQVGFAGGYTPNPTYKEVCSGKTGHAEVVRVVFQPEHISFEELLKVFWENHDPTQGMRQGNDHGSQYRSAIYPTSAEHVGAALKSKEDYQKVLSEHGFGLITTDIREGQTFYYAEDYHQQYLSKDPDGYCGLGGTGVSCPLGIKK

Aminopeptidase N = target: T5, Aminopeptidase N (Plasmodium falciparum FcB1/Columbia, UniProt O96935); experiment: malaria alanyl aminopeptidase activity blockers – biochemical, fluorogenic H-Leu-NHMec substrate, 1536-well (AID 1445); design: species or system Plasmodium falciparum 3D7, 3D7
T5 sequence (O96935 whole entry): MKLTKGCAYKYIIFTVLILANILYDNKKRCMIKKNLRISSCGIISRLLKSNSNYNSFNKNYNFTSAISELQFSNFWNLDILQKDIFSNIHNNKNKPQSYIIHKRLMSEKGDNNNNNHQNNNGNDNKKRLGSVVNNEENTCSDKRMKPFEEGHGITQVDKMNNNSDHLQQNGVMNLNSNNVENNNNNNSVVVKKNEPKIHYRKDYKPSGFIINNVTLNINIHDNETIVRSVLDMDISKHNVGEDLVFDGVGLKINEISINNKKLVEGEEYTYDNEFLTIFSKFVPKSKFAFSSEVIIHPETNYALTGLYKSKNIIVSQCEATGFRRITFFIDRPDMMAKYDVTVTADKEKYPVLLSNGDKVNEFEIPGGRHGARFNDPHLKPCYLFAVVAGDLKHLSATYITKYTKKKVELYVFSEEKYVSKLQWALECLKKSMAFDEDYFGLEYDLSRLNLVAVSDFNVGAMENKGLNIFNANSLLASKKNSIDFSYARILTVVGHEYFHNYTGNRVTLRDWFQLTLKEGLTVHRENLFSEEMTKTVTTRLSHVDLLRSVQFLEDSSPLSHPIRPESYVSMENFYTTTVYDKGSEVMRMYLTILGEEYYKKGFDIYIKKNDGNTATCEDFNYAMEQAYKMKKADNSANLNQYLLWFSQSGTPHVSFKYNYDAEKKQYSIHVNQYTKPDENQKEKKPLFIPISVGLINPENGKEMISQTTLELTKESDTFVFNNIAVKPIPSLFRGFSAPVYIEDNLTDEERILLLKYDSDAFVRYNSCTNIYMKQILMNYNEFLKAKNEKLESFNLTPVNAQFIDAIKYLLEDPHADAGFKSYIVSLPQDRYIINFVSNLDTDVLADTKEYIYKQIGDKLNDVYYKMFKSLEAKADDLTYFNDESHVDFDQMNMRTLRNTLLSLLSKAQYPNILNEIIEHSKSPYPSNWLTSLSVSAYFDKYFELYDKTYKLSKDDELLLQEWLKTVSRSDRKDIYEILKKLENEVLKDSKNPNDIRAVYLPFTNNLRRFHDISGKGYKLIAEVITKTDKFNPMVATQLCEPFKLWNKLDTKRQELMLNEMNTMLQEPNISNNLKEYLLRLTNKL

Vero = experiment: cells; format: functional, cell-based; conditions: Chlorocebus sabaeus
[13] = target: T6, Sentrin-specific protease 1 (Homo sapiens, UniProt Q9P0U3); experiment: SENP1 catalytic domain blockers, concentration series – biochemical, kinetic FRET, dose response (AID 651697); format: functional; conditions: read-out: IC50_Mean
T6 sequence (Q9P0U3 whole entry): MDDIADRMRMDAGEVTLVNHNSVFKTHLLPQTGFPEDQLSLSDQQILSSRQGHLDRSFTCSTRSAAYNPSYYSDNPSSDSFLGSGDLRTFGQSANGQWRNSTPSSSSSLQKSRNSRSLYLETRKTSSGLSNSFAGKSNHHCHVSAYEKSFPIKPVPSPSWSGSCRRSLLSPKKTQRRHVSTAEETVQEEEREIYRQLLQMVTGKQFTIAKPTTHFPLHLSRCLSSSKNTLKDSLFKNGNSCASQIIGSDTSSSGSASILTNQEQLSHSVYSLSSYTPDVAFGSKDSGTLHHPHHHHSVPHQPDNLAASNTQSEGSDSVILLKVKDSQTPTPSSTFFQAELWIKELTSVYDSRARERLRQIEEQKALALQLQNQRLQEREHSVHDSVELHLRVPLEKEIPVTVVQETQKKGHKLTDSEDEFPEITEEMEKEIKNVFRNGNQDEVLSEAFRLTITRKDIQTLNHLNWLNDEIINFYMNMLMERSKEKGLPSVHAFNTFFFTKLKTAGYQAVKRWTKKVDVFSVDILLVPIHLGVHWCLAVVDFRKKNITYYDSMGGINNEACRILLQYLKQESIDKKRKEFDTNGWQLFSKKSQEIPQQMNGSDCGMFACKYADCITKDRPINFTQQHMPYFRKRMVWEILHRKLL

[14] = target: T6, Sentrin-specific protease 1; experiment: Dose response confirmation of small molecule inhibitors of the catalytic domain of the SUMO protease, SENP1 in a FRET assay.; format: functional; conditions: read-out: IC50_Mean
[15] = target: Ras and Rab interactor 1/Tyrosine-protein kinase ABL1 (Homo sapiens, UniProt P00519+Q13671); format: functional;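 also: biochemical TR-FRET dose-response test measuring inhibition of binding between Rin1 and Abl proteins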
Sequence of Ras and Rab interactor 1/Tyrosine-protein kinase ABL1 (P00519 whole entry): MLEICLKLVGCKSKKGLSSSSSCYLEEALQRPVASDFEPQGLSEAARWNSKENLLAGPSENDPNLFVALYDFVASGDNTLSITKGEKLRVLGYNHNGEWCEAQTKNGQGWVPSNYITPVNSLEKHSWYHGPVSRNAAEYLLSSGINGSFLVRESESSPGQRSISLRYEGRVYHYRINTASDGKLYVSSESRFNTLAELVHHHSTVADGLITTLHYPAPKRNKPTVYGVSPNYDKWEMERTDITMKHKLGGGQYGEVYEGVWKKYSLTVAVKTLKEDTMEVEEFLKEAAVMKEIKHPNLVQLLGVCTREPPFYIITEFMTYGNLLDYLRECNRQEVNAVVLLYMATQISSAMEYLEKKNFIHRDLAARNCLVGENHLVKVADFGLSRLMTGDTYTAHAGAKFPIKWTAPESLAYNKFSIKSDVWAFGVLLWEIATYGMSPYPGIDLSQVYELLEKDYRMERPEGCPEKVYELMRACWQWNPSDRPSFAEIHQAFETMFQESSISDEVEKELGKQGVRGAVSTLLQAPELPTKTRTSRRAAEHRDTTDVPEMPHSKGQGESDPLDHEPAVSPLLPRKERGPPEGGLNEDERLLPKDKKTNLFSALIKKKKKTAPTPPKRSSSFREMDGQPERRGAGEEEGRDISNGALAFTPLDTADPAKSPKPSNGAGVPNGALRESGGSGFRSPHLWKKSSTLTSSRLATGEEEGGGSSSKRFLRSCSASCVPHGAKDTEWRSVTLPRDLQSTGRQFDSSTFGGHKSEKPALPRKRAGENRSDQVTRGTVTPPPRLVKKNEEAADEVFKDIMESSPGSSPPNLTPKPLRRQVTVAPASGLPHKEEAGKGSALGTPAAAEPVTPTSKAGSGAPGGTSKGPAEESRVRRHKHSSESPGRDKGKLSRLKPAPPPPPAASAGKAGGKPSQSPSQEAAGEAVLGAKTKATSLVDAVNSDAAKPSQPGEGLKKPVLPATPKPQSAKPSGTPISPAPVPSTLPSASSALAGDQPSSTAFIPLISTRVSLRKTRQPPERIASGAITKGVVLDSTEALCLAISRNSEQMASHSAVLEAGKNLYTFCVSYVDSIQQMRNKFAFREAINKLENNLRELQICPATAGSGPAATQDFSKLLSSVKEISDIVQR
Sequence of Ras and Rab interactor 1/Tyrosine-protein kinase ABL1 (Q13671 whole entry): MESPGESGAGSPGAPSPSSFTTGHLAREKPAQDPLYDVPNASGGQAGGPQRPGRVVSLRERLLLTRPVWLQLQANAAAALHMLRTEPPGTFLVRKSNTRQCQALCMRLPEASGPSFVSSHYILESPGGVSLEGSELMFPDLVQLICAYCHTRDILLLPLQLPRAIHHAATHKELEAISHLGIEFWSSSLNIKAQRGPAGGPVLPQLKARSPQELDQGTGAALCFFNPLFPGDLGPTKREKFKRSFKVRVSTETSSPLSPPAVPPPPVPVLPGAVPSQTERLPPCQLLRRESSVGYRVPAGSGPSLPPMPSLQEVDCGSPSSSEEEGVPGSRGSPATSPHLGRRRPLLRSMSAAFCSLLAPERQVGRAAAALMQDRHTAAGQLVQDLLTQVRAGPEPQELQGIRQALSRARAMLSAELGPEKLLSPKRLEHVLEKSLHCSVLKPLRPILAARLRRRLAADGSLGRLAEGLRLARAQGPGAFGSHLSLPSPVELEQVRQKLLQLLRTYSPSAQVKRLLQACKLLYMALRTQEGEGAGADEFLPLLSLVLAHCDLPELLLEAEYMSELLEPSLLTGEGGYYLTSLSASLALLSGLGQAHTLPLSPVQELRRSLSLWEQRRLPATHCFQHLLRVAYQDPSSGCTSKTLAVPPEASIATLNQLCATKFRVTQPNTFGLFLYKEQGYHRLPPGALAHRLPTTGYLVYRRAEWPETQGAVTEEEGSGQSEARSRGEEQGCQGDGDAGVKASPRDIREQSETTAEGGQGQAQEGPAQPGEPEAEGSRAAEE

[16] = Trypanosoma cruzi growth suppression in host cells – NIH3T3 host cells, beta-gal luminescence, confirmation (AID 2044); format: functional, cell-based;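 also: intracellular parasites grown in NIH/3T3 mouse fibroblasts as host cells; luminescent beta-galactosidase reporter signal from transgenic T. cruzi replicating inside host cells; inhibitors lower the luminescence signal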
[17] = NIH3T3 cell viability loss – ATP luminescence, mouse fibroblasts, counter-screen, dose response (AID 2010); format: functional, cell-based;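 also: cells exposed to compound for about 90 hours before reading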
[18] = target: T7, DNA repair and recombination protein RAD54-like (Homo sapiens, UniProt Q92698); experiment: RAD54 Holliday junction migration blockers – biochemical, fluorescence, cherry-picked samples, dose series, confirmation (AID 651657); format: functional
T7 sequence (Q92698 whole entry): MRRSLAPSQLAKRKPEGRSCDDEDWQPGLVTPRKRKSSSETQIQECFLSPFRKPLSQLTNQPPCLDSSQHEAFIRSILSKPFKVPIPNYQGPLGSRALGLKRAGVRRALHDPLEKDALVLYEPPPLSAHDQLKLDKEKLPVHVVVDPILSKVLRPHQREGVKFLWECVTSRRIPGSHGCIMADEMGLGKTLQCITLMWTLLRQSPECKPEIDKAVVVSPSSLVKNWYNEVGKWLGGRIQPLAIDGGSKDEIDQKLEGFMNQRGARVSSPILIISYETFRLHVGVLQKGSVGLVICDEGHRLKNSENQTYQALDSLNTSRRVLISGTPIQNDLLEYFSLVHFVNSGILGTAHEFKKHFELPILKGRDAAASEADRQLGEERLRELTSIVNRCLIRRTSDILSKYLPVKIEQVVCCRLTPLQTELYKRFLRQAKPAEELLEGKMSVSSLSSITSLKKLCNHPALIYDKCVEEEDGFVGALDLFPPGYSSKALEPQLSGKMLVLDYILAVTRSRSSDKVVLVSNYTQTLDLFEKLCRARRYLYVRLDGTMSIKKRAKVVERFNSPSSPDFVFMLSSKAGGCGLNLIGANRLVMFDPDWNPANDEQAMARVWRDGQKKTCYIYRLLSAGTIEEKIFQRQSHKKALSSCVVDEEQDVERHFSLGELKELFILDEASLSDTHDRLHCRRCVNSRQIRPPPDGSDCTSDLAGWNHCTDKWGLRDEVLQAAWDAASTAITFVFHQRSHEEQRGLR

Cc1cccc2c3nc4ccccc4nc3n(C)c12
CC50 [1]: > 50 µM (active)
IC50 (CHO-K1): > 66.2 µM (inactive)
IC50 [2]: > 49.7 µM (inactive)
IC50 [3]: 1.33 µM (active)
IC50 [4]: 8.12 µM (active)
EC50 [5]: > 99 µM (inactive)
EC50 [6]: 51.9 µM (inactive)
IC50 (Orexin receptor type 2 [7]): 11 µM (inactive)
IC50 (Orexin receptor type 2 [8]): 5.76 µM (active)

Cn1cnc([N+](=O)[O-])c1S(=O)(=O)Oc1ccccc1
AC50 [9]: 3.83 µM (active)
AC50 [10]: 42.3 µM (active)
AC50 [11]: 24.1 µM (active)
IC50 [12]: 48 µM (inactive)

O=C(N/N=C(\CC(=O)c1cccs1)C(F)(F)F)c1ccncc1
IC50 (Aminopeptidase N): 48.8 µM (active)
IC50 (Vero): 24.8 µM (active)
IC50 [13]: 38 µM (inactive)
IC50 [14]: 10.1 µM (active)

CN(C(=O)c1ccc(NC(=O)Cc2cccc(NC(=O)C3CCN(C(=O)C4CCCCC4)CC3)c2)cc1)C1CC1
IC50 [15]: 18.9 µM (inactive)

CCN(CC)c1nc2cc(C)ccc2cc1/C=C(\C#N)C(N)=O
IC50 [13]: 17.3 µM (active)
IC50 [14]: 20 µM (inactive)

OCCN1CCN(c2ncnc3c2sc2nc(N4CCOCC4)c4c(c23)CCC4)CC1
EC50 [16]: 0.241 µM (active)
EC50 [17]: > 60 µM (not active)
IC50 [15]: 24.2 µM (inactive)
AC50 [18]: 11.4 µM (active)

O=C(NN=Cc1sc(=O)[n-]c1-[n+]1ccc(-c2ccncc2)cc1)c1ccccc1
IC50 [12]: 155 µM (inactive)

Source: ChEMBL document CHEMBL1201862, “PubChem BioAssay data set” (2004)
